The experiment relates to SARS-CoV-2. Kind of experiment: microbe, parasite or virus in culture. Particulars: Severe acute respiratory syndrome coronavirus 2, Vero C1008, 48 h.

SMILES strings stand for the structures.

As to `COc1cc(C(C)=O)ccc1O` [APOCYNIN], the IC50 is above 20 µM. In addition, the IC50 (read-out: pIC50 (converted)) was above 20 µM.
Take `CN1CCc2cccc3c2[C@H]1Cc1ccc(O)c(O)c1-3` [APOMORPHINE]: the IC50 was above 20 µM. Where the note is “read-out: pIC50 (converted)”, the IC50 was above 20 µM.
For the compound `Nc1cc(Cl)c(N=C2NCCN2)c(Cl)c1` [APRACLONIDINE], the IC50 is above 20 µM. For the same compound, the IC50 (read-out: pIC50 (converted)) was above 20 µM.
As for `C[C@@H](O[C@H]1OCCN(Cc2n[nH]c(=O)[nH]2)[C@H]1c1ccc(F)cc1)c1cc(C(F)(F)F)cc(C(F)(F)F)c1` [APREPITANT], the IC50 was above 20 µM. Under “read-out: pIC50 (converted)”, the IC50 is above 20 µM.
Regarding `C=CCC1(C(C)C)C(=O)NC(=O)NC1=O` [APROBARBITAL], the IC50 was above 20 µM. The IC50 (read-out: pIC50 (converted)) is above 20 µM.
In the case of `CCN(CC)CCOC(=O)C(C)(c1ccccc1)c1ccccc1` [APROFENE], the IC50 is above 20 µM. Further, the IC50 (read-out: pIC50 (converted)) is above 20 µM.
Compound `O=c1ccn([C@@H]2O[C@H](CO)[C@@H](O)[C@@H]2O)c(=O)[nH]1` [ARAURIDINE] returned an IC50 above 20 µM. The IC50 (read-out: pIC50 (converted)) is above 20 µM.
Compound `OC[C@H]1O[C@@H](Oc2ccc(O)cc2)[C@H](O)[C@@H](O)[C@@H]1O` [ARBUTIN] yielded an IC50 above 20 µM. Further, for the setting “read-out: pIC50 (converted)”, the IC50 is above 20 µM.
`N=C(N)NCCCCNC(=N)N` [ARCAINE] had an IC50 above 20 µM. Moreover, the IC50 (read-out: pIC50 (converted)) is above 20 µM.
`COC(=O)C1=CCCN(C)C1` [ARECOLINE] gave an IC50 above 20 µM. The IC50 (read-out: pIC50 (converted)) was above 20 µM.
On to `CCOC(=O)N1CCC(=O)N(c2ccccc2)c2cc(Cl)ccc21` [ARFENDAZAM], for which the IC50 is above 20 µM. Besides, the IC50 (read-out: pIC50 (converted)) was above 20 µM.
`CC1CNc2c(cccc2S(=O)(=O)N[C@@H](CCCNC(=N)N)C(=O)N2CC[C@@H](C)C[C@@H]2C(=O)O)C1` (stereo partly drawn) [ARGATROBAN]: the IC50 was above 20 µM. In addition, for the setting “read-out: pIC50 (converted)”, the IC50 is above 20 µM.
The compound `C=C1C(=O)O[C@@H]2[C@H]3C(C)=CC[C@@]34O[C@@]4(C)CC[C@@H]12` [ARGLABIN] yielded an IC50 above 20 µM. For the same compound, the IC50 (read-out: pIC50 (converted)) is above 20 µM.
Compound `CC(=O)NCCOC(=O)[C@H](Oc1cccc(C(F)(F)F)c1)c1ccc(Cl)cc1` [ARHALOFENATE] gave an IC50 above 20 µM. The IC50 (read-out: pIC50 (converted)) was above 20 µM.
The compound `CCCn1c(=O)c2[nH]cnc2n(-c2ccc(Cl)cc2)c1=O` [AROFYLLINE] registered an IC50 above 20 µM. Besides, where the note is “read-out: pIC50 (converted)”, the IC50 was above 20 µM.
Regarding `CCN(CC)CC#CCOC(=O)[C@](O)(c1ccccc1)C1CCCCC1` [AROXYBUTYNIN], the IC50 is above 20 µM. Moreover, the IC50 (read-out: pIC50 (converted)) is above 20 µM.
Regarding `C[C@@H]1CC[C@H]2[C@@H](C)C(=O)O[C@@H]3O[C@@]4(C)CC[C@@H]1[C@]32OO4` [ARTEMISININ], the IC50 is above 20 µM. In addition, the IC50 (read-out: pIC50 (converted)) was above 20 µM.
As for `C[C@H]1[C@H](OC(=O)CCC(=O)O)O[C@@H]2O[C@@]3(C)CC[C@H]4[C@H](C)CC[C@@H]1[C@@]24OO3` [ARTESUNATE], the IC50 is above 20 µM. Moreover, the IC50 (read-out: pIC50 (converted)) was above 20 µM.
Compound `CCCNC(C)C(=O)Nc1c(C)csc1C(=O)OC` (stereo not drawn) [ARTICAINE] gave an IC50 above 20 µM. Moreover, the IC50 (read-out: pIC50 (converted)) is above 20 µM.
As for `c1ccc2c(Cc3c[nH]c4ccccc34)c[nH]c2c1` [ARUNDINE], the IC50 is above 20 µM. Under “read-out: pIC50 (converted)”, the IC50 was above 20 µM.
With `c1cc2c(cc1[C@H]1OC[C@H]3[C@@H]1CO[C@H]3c1ccc3c(c1)OCO3)OCO2` [ASARININ], the IC50 was above 20 µM. Further, under “read-out: pIC50 (converted)”, the IC50 was above 20 µM.
`O=C1O[C@H]([C@@H](O)CO)C(O)=C1O` [ASCORBIC ACID] came in with an IC50 above 20 µM. Besides, the IC50 (read-out: pIC50 (converted)) was above 20 µM.
`CN(C(=O)C(c1ccccc1)c1ccccc1)[C@H](CN1CC[C@H](O)C1)c1ccccc1` [ASIMADOLINE] came in with an IC50 above 20 µM. Also, the IC50 (read-out: pIC50 (converted)) was above 20 µM.
Compound `COc1cccc(-c2cc(F)c(Nc3ncccc3C(=O)O)c(F)c2)c1` [ASLAN-003] showed an IC50 above 20 µM. The IC50 (read-out: pIC50 (converted)) is above 20 µM.
`CC(=O)Oc1ccccc1C(=O)O` [ASPIRIN] came in with an IC50 above 20 µM. Under “read-out: pIC50 (converted)”, the IC50 is above 20 µM.
`O=C(NC1CCNCC1)c1n[nH]cc1NC(=O)c1c(Cl)cccc1Cl` [AT-7519]: the IC50 is above 20 µM. Besides, the IC50 (read-out: pIC50 (converted)) was above 20 µM.
Compound `O=C(Nc1c[nH]nc1-c1nc2ccc(CN3CCOCC3)cc2[nH]1)NC1CC1` [AT-9283] had an IC50 above 20 µM. Where the note is “read-out: pIC50 (converted)”, the IC50 was above 20 µM.
In turn, `COC(=O)N[C@H](C(=O)N[C@@H](Cc1ccccc1)[C@@H](O)CN(Cc1ccc(-c2ccccn2)cc1)NC(=O)[C@@H](NC(=O)OC)C(C)(C)C)C(C)(C)C` [ATAZANAVIR] yielded an IC50 above 20 µM. Further, under “read-out: pIC50 (converted)”, the IC50 is above 20 µM.
With `O=C1c2ccccc2C(=O)c2c1ccc(O)c2O` [ATHRAQUINONES A], the IC50 is above 20 µM. Under “read-out: pIC50 (converted)”, the IC50 was above 20 µM.
As to `Cc1cc(C)cc([C@@H]2CCCN2Cc2ccc(Oc3ccc(C(N)=O)cc3F)cc2)c1` [ATICAPRANT], the IC50 is above 20 µM. Further, the IC50 (read-out: pIC50 (converted)) was above 20 µM.
`CCC1(c2c[nH]cn2)Cc2ccccc2C1` [ATIPAMEZOLE]: the IC50 was above 20 µM. Also, the IC50 (read-out: pIC50 (converted)) was above 20 µM.
For `CCCC1(CCC)CCC2(CCN(CCCN(CC)CC)C2)CC1` [ATIPRIMOD], the IC50 is above 20 µM. Further, the IC50 (read-out: pIC50 (converted)) was above 20 µM.
`CNCC[C@@H](Oc1ccccc1C)c1ccccc1` [ATOMOXETINE]: the IC50 was above 20 µM. Besides, the IC50 (read-out: pIC50 (converted)) is above 20 µM.
In the case of `CCOc1cc2c(c(F)c1OCC)C(=N)N(CC(=O)c1cc(N3CCOCC3)c(OC)c(C(C)(C)C)c1)C2` [ATOPAXAR], the IC50 is above 20 µM. Moreover, the IC50 (read-out: pIC50 (converted)) is above 20 µM.
Take `CC(C)c1c(C(=O)Nc2ccccc2)c(-c2ccccc2)c(-c2ccc(F)cc2)n1CC[C@@H](O)C[C@@H](O)CC(=O)O` [ATORVASTATIN]: the IC50 was above 20 µM. Under “read-out: pIC50 (converted)”, the IC50 is above 20 µM.
`O=C1C(O)=C([C@H]2CC[C@H](c3ccc(Cl)cc3)CC2)C(=O)c2ccccc21` [ATOVAQUONE] gave an IC50 above 20 µM. Further, where the note is “read-out: pIC50 (converted)”, the IC50 is above 20 µM.
Compound `COC(=O)c1c(C)cc(OC(=O)c2c(C)cc(O)c(C=O)c2O)c(C)c1O` [ATRANORIN] returned an IC50 above 20 µM. Besides, under “read-out: pIC50 (converted)”, the IC50 is above 20 µM.
As for `C[C@H](C#Cc1ccc(Cc2ccc(F)cc2)s1)N(O)C(N)=O` [ATRELEUTON], the IC50 was above 20 µM. For the same compound, the IC50 (read-out: pIC50 (converted)) is above 20 µM.
In turn, `CC(O)(C(N)=O)c1ccccc1` (stereo not drawn) [ATROLACTAMIDE] came in with an IC50 above 20 µM. Also, the IC50 (read-out: pIC50 (converted)) was above 20 µM.
With `CN1[C@@H]2CC[C@H]1C[C@@H](OC(=O)C(CO)c1ccccc1)C2` (stereo partly drawn) [ATROPINE], the IC50 was above 20 µM. In addition, the IC50 (read-out: pIC50 (converted)) was above 20 µM.
`O=C(O)C1=CC(=C(c2ccc(O)c(C(=O)O)c2)c2ccc(O)c(C(=O)O)c2)C=CC1=O` [AURINTRICARBOXYLIC ACID] yielded an IC50 above 20 µM. Moreover, the IC50 (read-out: pIC50 (converted)) was above 20 µM.
Turning to `Oc1ccc([C@H]2COc3cc(O)ccc3C2)cc1` [AUS-131], the IC50 was above 20 µM. For the setting “read-out: pIC50 (converted)”, the IC50 was above 20 µM.
The compound `CC1=CC(=O)C2=C(C)C[C@H](O)[C@@H]3[C@H](OC(=O)[C@H]3C)[C@@H]12` [AUSTRICIN] registered an IC50 above 20 µM. Further, for the setting “read-out: pIC50 (converted)”, the IC50 was above 20 µM.
In the case of `Cc1nc2cccc(N)c2c(=O)n1C1CCC(=O)NC1=O` (stereo not drawn) [AVADOMIDE], the IC50 was above 20 µM. For the same compound, the IC50 (read-out: pIC50 (converted)) was above 20 µM.
